Results published in US20250171432A1, “COMPOUNDS AND METHODS OF USE” (Tango Therapeutics, Inc., priority 2022, published 2025).

How the values were obtained:
Type in all cases: cell-based
[1] = test system: SDMA (PRMT5 activity) in HAP1 MTAP-deleted cell line; experiment: SDMA in-cell western assay, HAP1 MTAP-deleted; conditions: for IC50 / IC90: SDMA in-cell western, HAP1 MTAP-deleted cells, 24 hours compound incubation; for Hap1 MTAP intact/deleted ratio: ratio of SDMA IC50 in HAP1 MTAP-intact to HAP1 MTAP-deleted cell line
[2] = test system: HAP1 MTAP-deleted cell line; experiment: Viability assay (CellTiter-Glo), HAP1 MTAP-deleted; conditions: HAP1 MTAP-deleted cells, 7 days
How it was run: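 HAP1 MTAP-deleted and MTAP-intact cells seeded, then dosed next day (n=3, 0.2% DMSO) and grown 7 days. Viability by CellTiter-Glo luminescence, expressed as % of DMSO control per cell line.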

[3] = test system: SDMA (PRMT5 activity) in HAP1 MTAP-intact cell line; experiment: SDMA in-cell western assay, HAP1 MTAP-intact; conditions: SDMA in-cell western, HAP1 MTAP-intact cells, 24 hours compound incubation

| IC50 ([1]; Homo sapiens) [nM] | IC90 ([1]; Homo sapiens) [nM] | IC50 ([3]; Homo sapiens, HAP1, 24 h) [nM] | IC50 [1] [nM] | IC90 [1] [nM] | IC50 [3] [nM] | SMILES | Hap1 MTAP intact/deleted ratio [1] | IC50 ([2]; Homo sapiens, 168 h) [nM] | IC50 [2] [nM] |
| --- | --- | --- | --- | --- | --- | --- | --- | --- | --- |
| < 5 | < 75 | > 50 | – | – | – | COc1ncc(NC(=O)C(=O)N2C[C@@H](C)CC[C@@H]2c2ccc3sc([C@@H]4C[C@@H]5CN(C)C[C@@H]5C4)nc3c2)cc1C(N)=O (single isomer, unassigned) [Compound 82] | A (“A” indicates an IC50 ratio greater than or equal to 30 fold) | < 100 | – |
| < 5 | < 75 | > 50 | – | – | – | CCc1cc(NC(=O)C(=O)N2C[C@@H](C)CC[C@@H]2c2ccc3sc([C@H]4CCN(C)C[C@@H]4OC)nc3c2)cnc1N (single isomer, unassigned) [Compound 90] | A (“A” indicates an IC50 ratio greater than or equal to 30 fold) | < 100 | – |
| < 5 | < 75 | 5 to 50 | – | – | – | CCc1cc(NC(=O)C(=O)N2C[C@@H](C)CC[C@@H]2c2ccc3sc([C@@H]4CCN(C)C[C@H]4OC)nc3c2)cnc1N (single isomer, unassigned) [Compound 101] | B (“B” indicates an IC50 ratio greater than or equal to 15 fold but lower than 30 fold) | < 100 | – |
| < 5 | < 75 | > 50 | – | – | – | CCc1cc(NC(=O)C(=O)N2C[C@@H](C)CC[C@@H]2c2ccc3sc([C@@H]4CN(C)CC(C)(C)C4)nc3c2)cnc1N (single isomer, unassigned) [Compound 105] | A (“A” indicates an IC50 ratio greater than or equal to 30 fold) | < 100 | – |
| – | – | – | < 5 | < 75 | 5 to 50 | CCc1cc(NC(=O)C(=O)N2C[C@@H](C)CC[C@@H]2c2ccc3sc(C(C)CN4CCCC4)nc3c2)cnc1N (single isomer, unassigned) [Compound 106] | B (“B” indicates an IC50 ratio greater than or equal to 15 fold but lower than 30 fold) | – | < 100 |
| < 5 | < 75 | > 50 | – | – | – | CCc1cc(NC(=O)C(=O)N2C[C@@H](C)CC[C@@H]2c2ccc3sc([C@@H]4C[C@@H]5CN(C)C[C@@H]5C4)nc3c2)cnc1N (single isomer, unassigned) [Compound 111] | B (“B” indicates an IC50 ratio greater than or equal to 15 fold but lower than 30 fold) | < 100 | – |
| – | – | – | < 5 | < 75 | 5 to 50 | CCc1cc(NC(=O)C(=O)N2C[C@@H](C)CC[C@@H]2c2ccc3cn(C4CN(C)CC(C)(C)C4)nc3c2)cnc1N (single isomer, unassigned) [Compound 114] | B (“B” indicates an IC50 ratio greater than or equal to 15 fold but lower than 30 fold) | – | < 100 |
| – | – | – | < 5 | < 75 | 5 to 50 | CCc1cc(NC(=O)C(=O)N2C[C@@H](C)CC[C@@H]2c2ccc3cn(C4CCN(C)C(C)(C)C4)nc3c2)cnc1N (single isomer, unassigned) [Compound 115] | – | – | < 100 |
| 5 to 50 | < 75 | > 50 | – | – | – | CCc1cc(NC(=O)C(=O)N2C[C@@H](C)CC[C@@H]2c2cccc(OCC3CCCN3C)c2)cnc1N (single isomer, unassigned) [Compound 121] | B (“B” indicates an IC50 ratio greater than or equal to 15 fold but lower than 30 fold) | < 100 | – |
| < 5 | < 75 | 5 to 50 | – | – | – | CCc1cc(NC(=O)C(=O)N2C[C@@H](C)CC[C@@H]2c2ccc3sc(CC4(C)CCN(C)CC4)nc3c2)cnc1N [Compound 6, N-(6-amino-5-ethylpyridin-3-yl)-2-((2R,5S)-2-(2-((1,4-dimethylpiperidin-4-yl)methyl)benzo[d]thiazol-5-yl)-5-methylpiperidin-1-yl)-2-oxoacetamide] | B (“B” indicates an IC50 ratio greater than or equal to 15 fold but lower than 30 fold) | < 100 | – |
| 5 to 50 | < 75 | > 50 | – | – | – | COc1ncc(NC(=O)C(=O)N2C[C@@H](C)CC[C@@H]2c2ccc3cn(CCN(C)C)nc3c2)cc1C(N)=O [Compound 7, 2-methoxy-5-[[2-oxo-2-[(2R,5S)-2-[2-[2-(dimethylamino)ethyl]indazol-6-yl]-5-methyl-1-piperidyl]acetyl]amino]pyridine-3-carboxamide] | A (“A” indicates an IC50 ratio greater than or equal to 30 fold) | < 100 | – |
| < 5 | < 75 | > 50 | – | – | – | C[C@H]1CC[C@H](c2ccc3sc(C4CCN(C)CC4)nc3c2)N(C(=O)C(=O)Nc2cnc(F)c(C(N)=O)c2)C1 [Compound 8, 2-fluoro-5-(2-((2R,5S)-5-methyl-2-(2-(1-methylpiperidin-4-yl)benzo[d]thiazol-5-yl)piperidin-1-yl)-2-oxoacetamido)nicotinamide] | B (“B” indicates an IC50 ratio greater than or equal to 15 fold but lower than 30 fold) | < 100 | – |
| < 5 | < 75 | > 50 | – | – | – | CCc1cc(NC(=O)C(=O)N2C[C@@H](C)CC[C@@H]2c2cccc(N3CCC(N(C)C)CC3)c2)cnc1N [Compound 9, N-(6-amino-5-ethylpyridin-3-yl)-2-((2R,5S)-2-(3-(4-(dimethylamino)piperidin-1-yl)phenyl)-5-methylpiperidin-1-yl)-2-oxoacetamide] | A (“A” indicates an IC50 ratio greater than or equal to 30 fold) | < 100 | – |
| < 5 | < 75 | > 50 | – | – | – | COc1ncc(NC(=O)C(=O)N2C[C@@H](C)CC[C@@H]2c2ccc3sc([C@H](C)CN(C)C)nc3c2)cc1C(N)=O [Compound 11, 2-methoxy-5-[[2-oxo-2-[(2R,5S)-5-methyl-2-[2-[(^1S)-2-(dimethylamino)-1-methyl-ethyl]-1,3-benzothiazol-5-yl]-1-piperidyl]acetyl]amino]pyridine-3-carboxamide] | A (“A” indicates an IC50 ratio greater than or equal to 30 fold) | < 100 | – |
| < 5 | < 75 | 5 to 50 | – | – | – | COc1ncc(NC(=O)C(=O)N2C[C@@H](C)CC[C@@H]2c2ccc3sc([C@@H](C)CN(C)C)nc3c2)cc1C(N)=O [Compound 14, 2-methoxy-5-[[2-oxo-2-[(2R,5S)-5-methyl-2-[2-[(^1R)-2-(dimethylamino)-1-methyl-ethyl]-1,3-benzothiazol-5-yl]-1-piperidyl]acetyl]amino]pyridine-3-carboxamide] | B (“B” indicates an IC50 ratio greater than or equal to 15 fold but lower than 30 fold) | < 100 | – |
| < 5 | < 75 | > 50 | – | – | – | COc1ncc(NC(=O)C(=O)N2C[C@@H](C)CC[C@@H]2c2ccc3sc([C@H](C)CN4CCCC4)nc3c2)cc1C(N)=O [Compound 15, 2-methoxy-5-[[2-oxo-2-[(2R,5S)-5-methyl-2-[2-[(1R)-1-methyl-2-pyrrolidin-1-yl-ethyl]-1,3-benzothiazol-5-yl]-1-piperidyl]acetyl]amino]pyridine-3-carboxamide] | B (“B” indicates an IC50 ratio greater than or equal to 15 fold but lower than 30 fold) | < 100 | – |
| 5 to 50 | < 75 | > 50 | – | – | – | CCc1cc(NC(=O)C(=O)N2C[C@@H](C)CC[C@@H]2c2ccc3cn(C4CCOCC4)nc3c2)cnc1N [Compound 17, N-(6-amino-5-ethyl-3-pyridyl)-2-oxo-2-[(2R,5S)-5-methyl-2-(2-tetrahydropyran-4-ylindazol-6-yl)-1-piperidyl]acetamide] | A (“A” indicates an IC50 ratio greater than or equal to 30 fold) | < 100 | – |
| < 5 | < 75 | > 50 | – | – | – | CCc1cc(NC(=O)C(=O)N2C[C@@H](C)CC[C@@H]2c2ccc3c(C)n(C4CCN(C)CC4)nc3c2)cnc1N [Compound 19, N-(6-amino-5-ethyl-3-pyridyl)-2-oxo-2-[(2R,5S)-5-methyl-2-[3-methyl-2-(1-methyl-4-piperidyl)indazol-6-yl]-1-piperidyl]acetamide] | A (“A” indicates an IC50 ratio greater than or equal to 30 fold) | < 100 | – |
| < 5 | < 75 | > 50 | – | – | – | COc1ncc(NC(=O)C(=O)N2C[C@@H](C)CC[C@@H]2c2ccc3sc(CC4CCN(C)CC4)nc3c2)cc1C(N)=O [Compound 20, 2-methoxy-5-(2-((2R,5S)-5-methyl-2-(2-((1-methylpiperidin-4-yl)methyl)benzo[d]thiazol-5-yl)piperidin-1-yl)-2-oxoacetamido)nicotinamide] | A (“A” indicates an IC50 ratio greater than or equal to 30 fold) | < 100 | – |
| < 5 | < 75 | > 50 | – | – | – | COc1ncc(NC(=O)C(=O)N2C[C@@H](C)CC[C@@H]2c2ccc3sc(CC4(C)CCN(C)CC4)nc3c2)cc1C(N)=O [Compound 22, 5-(2-((2R,5S)-2-(2-((1,4-dimethylpiperidin-4-yl)methyl)benzo[d]thiazol-5-yl)-5-methylpiperidin-1-yl)-2-oxoacetamido)-2-methoxynicotinamide] | B (“B” indicates an IC50 ratio greater than or equal to 15 fold but lower than 30 fold) | < 100 | – |
